From patent publication US8506943B2, “Cyclohexylethyl carboxylic acid ester compositions and method for using the same for reducing malodors” (International Flavors & Fragrances Inc., priority 2009, dated 2013) come the findings set out here.

Design in all cases: species or system human
The nature of experiment [1]: Sweat malodor model (IVA), panel mean rank of odor intensity (Example V). The conditions noted are these: for mean rank of the odor intensity: 1 = least intense, 5 = most intense, set of racemate, S and R. The source says:
(§1) Establishment of a Model of Sweat Malodor: It is known that the perspirative malodors of human body, particularly sweat, are associated with the production of several unpleasant smelling organic acids, particularly isovaleric acid (“IVA”). The commercial sample of this malodorous material (commercially available at Sigma-Aldrich Inc.) was thus used as a model compound to assess the effectiveness of sweat malodor counteractants.
(§2) Preparation of Test Samples: The VEILEX™ mixtures (VEILEX™ I, VEILEX™ II, and VEILEX™ III, commercially available from IFF) and the enantiomeric compounds of the present invention (all with optical purity over 80% ee, synthesized as above) were evaluated for sweat malodor counteracting effectiveness. Different concentrations of VEILEX™ mixtures and their enantiomeric counterparts were used based on the priori usage levels. Additionally, the overall intensity of 1-cyclohexylethanol (1% in diethyl phthalate) was noticeably greater than the other two compounds, a higher concentration of IVA (2% in diethyl phthalate) was therefore used for the test.
(§3) Testing Procedure: A cyclohexylethyl carboxylic acid ester compound (1 g, a racemate or enantiomer) and IVA (1 g, 1-2%) were placed in two 1-ounce jars separately, which were both placed in a 1-gallon jar and capped for 24 hours to allow for the headspace saturation prior to the test. Each set of three test samples (i.e., three 1-gallone jars containing IVA and, respectively, a racemate and each of the two enantiomers) was presented in a blind, random order to internal panelists (consisting of trained females having a mean age of 40 years).
(§4) The panelists were instructed to take the steps of i) uncap a first jar; ii) place their noses immediately above the opening; iii) take short sniffs for 2-3 seconds; iv) cap the jar; v) repeat the steps for the other two jars in the same set; and vi) provide a rank of the odor intensity for a set of three jars using the intensity scales of 1 to 5, where 1 represents the “Least Intense” and 5 represents the “Most Intense”. The ranks of the odor intensity were then statistically analyzed using SPSS 15.0 for Windows. Freidman's non-parametric tests were used to analyze the ranked intensity for each test sample. Post hoc pair-wise comparisons were only conducted when the overall Chi-square omnibus test was statistically significant (p<0.05).

Experiment [2] in a line: Mold/mildew malodor model, number of panelists ranking more intense (Example VI). The conditions noted are these: for rank of the odor intensity (number of panelists who ranked the more intense): Mold/Mildew, S vs R. The method, then: as §3, §4
(§5) Establishment of Mold/Mildew and Bathroom Malodor Models: In addition to the sweat model established as above, the malodor models of mold/mildew and bathroom were prepared based on applicant's proprietary formulations for assessing the effectiveness of mold/mildew and bathroom malodor counteractants.
(§6) Testing Procedure: Test samples were prepared the same as above. The same procedure was carried out except the ranks of the odor intensity were recorded based on the numbers of the panelists who ranked the more intense.

Experiment [3] is described as follows: Bathroom malodor model, number of panelists ranking more intense (Example VI). The conditions noted are these: S vs R. The method, then: as §3, §4, §5, §6
The nature of experiment [4]: Sweat malodor model (IVA), number of panelists ranking more intense (Example VI). The conditions noted are these: for rank of the odor intensity (number of panelists who ranked the more intense): S vs R.
Excerpt: as §1, §2, §3, §4, §6

A short description of experiment [5]: Mold/mildew malodor intensity on Labeled Magnitude Scale, concentration series (Example VII). The conditions noted are these: for Malodor Intensity: LMS mean, 0-100; for % MOR (percent malodor reduction): vs Malodor Alone. The method, then: Determination of an Effective Concentration of (1R)-1-cyclohexylethyl butyrate: To further identify an effective concentration of (1R)-1-cyclohexylethyl butyrate in counteracting mold/mildew malodor, (1R)-1-cyclohexylethyl butyrate was prepared at a series of concentrations, ranging from 0.05% to 10% in diethyl phthalate, with corresponding vapor phase concentrations ranging from about 0.3 to about 60 μg per liter of air space.
Testing Procedure: The same procedure was carried out as in Example VI to evaluate the effectiveness of different concentrations of (1R)-1-cyclohexylethyl butyrate (“VEILEX™ 1R”) in counteracting mold/mildew malodor. The odor intensity was rated using Labeled Magnitude Scale (LMS) [Green, et al., Chemical Senses, 21(3), June 1996, 323-334]. Mean (“Malodor Intensity”) and standard error of the mean (“SE”, ±) were obtained, where 0 represents “No Sensation” and 100 represents “The Strongest Imaginable Malodor Sensation”. Percent malodor reduction (“% MOR”) represents the reduction in mean malodor intensity of the negative control (Malodor Alone) in the presence of an enantiomeric cyclohexylethyl carboxylic acid ester.

The nature of experiment [6]: Sweat malodor (1% IVA) intensity on Labeled Magnitude Scale, concentration series (Example VIII). The conditions noted are these: for Malodor Intensity: LMS mean, 0-100; for % MOR (percent malodor reduction): vs Malodor Alone. On the procedure: Determination of an Effective Concentration of (1S)-1-cyclohexylethyl acetate: To further identify an effective concentration of (1S)-1-cyclohexylethyl acetate in counteracting sweat malodor, (1S)-1-cyclohexylethyl acetate was prepared at a series of concentrations, ranging from 0.05% to 5% in diethyl phthalate, with corresponding vapor phase concentrations ranging from about 1.5 to about 150 μg per liter of air space.
Testing Procedure: The same procedures were carried out as in Examples V and VII to evaluate the effectiveness of different concentrations of (1S)-1-cyclohexylethyl acetate (“VEILEX™ 2S”) in counteracting sweat malodor modeled by 1% of IVA.

The mark [7] stands for this setting: compared with enantiomeric counterpart.

Structures are written as SMILES. Marks after values point to notes of the source that are not given here.

As for `CC(O)C1CCCCC1` (racemic) [1-cyclohexylethanol M, 1-cyclohexylethanol, reference compound], in experiment [1] (IVA (2%), test compound 1%), the “mean rank of the odor intensity” value is listed as 2.58.
On to `C[C@H](O)C1CCCCC1` [1-cyclohexylethanol S, (S)-1-cyclohexylethanol], for which the “rank of the odor intensity (number of panelists who ranked the more intense)” value in experiment [2] (test compound 1%) worked out at 12; in experiment [3] (test compound 1%), 12; in experiment [4] (IVA (2%), test compound 1%), 7. Besides, the “mean rank of the odor intensity” value in experiment [1] (IVA (2%), test compound 1%) stood at 1.92.
With `CC(=O)O[C@H](C)C1CCCCC1` [1-cyclohexylethyl acetate R, (R)-1-cyclohexylethyl acetate], the “rank of the odor intensity (number of panelists who ranked the more intense)” value was determined as 11 in experiment [2] (test compound 2%); 12 in experiment [3] (test compound 2%); 11 in experiment [4] (IVA (1%), test compound 2%). Besides, in experiment [1] (IVA (1%), test compound 2%), the “mean rank of the odor intensity” value is 2.46.
As to `CCCC(=O)O[C@@H](C)C1CCCCC1` [1-cyclohexylethyl butyrate S, (S)-1-cyclohexylethyl butyrate], the “rank of the odor intensity (number of panelists who ranked the more intense)” value in experiment [2] (test compound 5%) was determined as 20; in experiment [3] (test compound 5%) it was 12; in experiment [4] (IVA (1%), test compound 5%), 8. The “mean rank of the odor intensity” value in experiment [1] (IVA (1%), test compound 5%) came out at 2.08.
`CC(=O)OC(C)C1CCCCC1` (racemic) [1-cyclohexylethyl acetate M, 1-cyclohexylethyl acetate, reference compound]: in experiment [1] (IVA (1%), test compound 2%), the “mean rank of the odor intensity” value is on record as 2.15.
Turning to `CCCC(=O)O[C@H](C)C1CCCCC1` [1-cyclohexylethyl butyrate R, (1R)-1-cyclohexylethyl butyrate], the “rank of the odor intensity (number of panelists who ranked the more intense)” value in experiment [2] (test compound 5%) was 5*; in experiment [3] (test compound 5%), 13; in experiment [4] (IVA (1%), test compound 5%) it was 4. In experiment [2] (setting [7]), the “effectiveness in counteracting mold/mildew malodor (in words)” value is “significantly and specifically effective in counteracting mold/mildew malodor”. Moreover, the “Malodor Intensity” value in experiment [5] (0.05%, 0.3 μg/L) is 13.70; in experiment [5] (0.1%, 0.6 μg/L), 11.86; in experiment [5] (0.5%, 3 μg/L), 12.03; in experiment [5] (1%, 6 μg/L), 11.66; in experiment [5] (10%, 60 μg/L), 8.25. Further, the “% MOR (percent malodor reduction)” value in experiment [5] (0.05%, 0.3 μg/L) is 13%; in experiment [5] (0.1%, 0.6 μg/L), 24%; in experiment [5] (0.5%, 3 μg/L), 23%; in experiment [5] (1%, 6 μg/L), 22%; in experiment [5] (10%, 60 μg/L), 47%. In experiment [1] (IVA (1%), test compound 5%), the “mean rank of the odor intensity” value stood at 1.42.
Consider `CC(=O)O[C@@H](C)C1CCCCC1` [1-cyclohexylethyl acetate S, (1S)-1-cyclohexylethyl acetate], for which the “rank of the odor intensity (number of panelists who ranked the more intense)” value in experiment [2] (test compound 2%) was 14; in experiment [3] (test compound 2%), 13; in experiment [4] (IVA (1%), test compound 2%), 2*. The “Malodor Intensity” value in experiment [6] (0.05%, 1.5 μg/L) came out at 17.98; in experiment [6] (0.1%, 3 μg/L), 18.29; in experiment [6] (0.5%, 15 μg/L), 14.8; in experiment [6] (1%, 30 μg/L), 14.15; in experiment [6] (5%, 150 μg/L), 8.35. The “% MOR (percent malodor reduction)” value came to 23% in experiment [6] (0.05%, 1.5 μg/L); 23% in experiment [6] (0.1%, 3 μg/L); 37% in experiment [6] (0.5%, 15 μg/L); 42% in experiment [6] (1%, 30 μg/L); 55% in experiment [6] (5%, 150 μg/L). Moreover, the “mean rank of the odor intensity” value in experiment [1] (IVA (1%), test compound 2%) is 1.38*. The “effectiveness in counteracting sweat malodor (in words)” value in experiment [1] (compared with racemate and R enantiomer) is “particularly effective in counteracting sweat malodor”; in experiment [4] (setting [7]) it was “significantly and specifically effective in counteracting sweat malodor”.
`CCCC(=O)OC(C)C1CCCCC1` (racemic) [1-cyclohexylethyl butyrate M, 1-cyclohexylethyl butyrate, reference compound]: the “mean rank of the odor intensity” value in experiment [1] (IVA (1%), test compound 5%) stood at 2.50.
In the case of `C[C@@H](O)C1CCCCC1` [1-cyclohexylethanol R, (R)-1-cyclohexylethanol], the “rank of the odor intensity (number of panelists who ranked the more intense)” value in experiment [2] (test compound 1%) turned out to be 13; in experiment [3] (test compound 1%), 13; in experiment [4] (IVA (2%), test compound 1%) it was 5. Also, the “mean rank of the odor intensity” value in experiment [1] (IVA (2%), test compound 1%) worked out at 1.50.
